Assay results: PubChem BioAssay (NCI)
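Growth conditions: 96-well plates. Treatment: test compound, 48 hours, 5 concentrations. Analysis: linear interpolation between bracketing concentrations; unreached endpoints set to highest concentration. GI50: concentration for 50% inhibition of growth. TGI is the concentration that stops growth completely.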

Columns and labels:
Test in all cases: NCI anticancer screen, dose series, 48 h
HOP-62 NSCLC = tested on: HOP-62 NSCLC
HT29 colon = tested on: HT29 colon
LOX IMVI melanoma = tested on: LOX IMVI melanoma
MALME-3M melanoma = tested on: MALME-3M melanoma
MDA-MB-435 = tested on: MDA-MB-435
SF-295 CNS = tested on: SF-295 CNS
SK-OV-3 ovarian = tested on: SK-OV-3 ovarian
SNB-19 CNS = tested on: SNB-19 CNS
SNB-75 CNS = tested on: SNB-75 CNS
UO-31 renal = tested on: UO-31 renal

Structure (SMILES): COc1c2c(cc3c1OCO3)C13C=CC(OC)CC1N(CC3)C2 (centres undefined)
- TGI (HOP-62 NSCLC): > 100 µM
- TGI (HT29 colon): > 100 µM
- TGI (LOX IMVI melanoma): > 100 µM
- TGI (MALME-3M melanoma): > 100 µM
- TGI (MDA-MB-435): > 100 µM
- TGI (SF-295 CNS): > 100 µM
- TGI (SK-OV-3 ovarian): > 100 µM
- TGI (SNB-19 CNS): > 100 µM
- TGI (SNB-75 CNS): > 100 µM
- TGI (UO-31 renal): > 100 µM

Structure (SMILES): CC(=O)OCC1=C(C(=O)O)C(c2ccc3c(c2)OCO3)c2cc3c(cc2O1)OCO3 (centres undefined)
- TGI (HOP-62 NSCLC): > 100 µM
- TGI (HT29 colon): > 100 µM
- TGI (LOX IMVI melanoma): > 100 µM
- TGI (MALME-3M melanoma): > 100 µM
- TGI (SF-295 CNS): > 100 µM
- TGI (SK-OV-3 ovarian): > 100 µM
- TGI (SNB-19 CNS): > 100 µM
- TGI (SNB-75 CNS): > 100 µM
- TGI (UO-31 renal): > 100 µM

Structure (SMILES): O=c1c2ccccc2nc2n1C(c1ccc([N+](=O)[O-])cc1)C2(c1ccccc1)c1ccccc1 (centres undefined)
- TGI (HOP-62 NSCLC): > 100 µM
- TGI (HT29 colon): > 100 µM
- TGI (LOX IMVI melanoma): > 100 µM
- TGI (MALME-3M melanoma): > 100 µM
- TGI (MDA-MB-435): > 100 µM
- TGI (SF-295 CNS): > 100 µM
- TGI (SK-OV-3 ovarian): > 100 µM
- TGI (SNB-19 CNS): > 100 µM

Structure (SMILES): CCC(=O)NC(Nc1cccc(F)c1)(C(F)(F)F)C(F)(F)F
- TGI (HT29 colon): > 100 µM
- TGI (LOX IMVI melanoma): > 100 µM
- TGI (MDA-MB-435): > 100 µM
- TGI (SF-295 CNS): > 100 µM
- TGI (SK-OV-3 ovarian): > 100 µM
- TGI (SNB-19 CNS): > 100 µM
- TGI (SNB-75 CNS): > 100 µM
- TGI (UO-31 renal): > 100 µM

Structure (SMILES): NC1(C(=O)O)CCc2ccc(N(CCCl)CCCl)cc2C1 (centres undefined)
- TGI (HOP-62 NSCLC): 63.5 µM
- TGI (HT29 colon): > 100 µM
- TGI (LOX IMVI melanoma): > 100 µM
- TGI (MALME-3M melanoma): 2.2 µM
- TGI (SF-295 CNS): > 100 µM
- TGI (SK-OV-3 ovarian): > 100 µM
- TGI (SNB-19 CNS): > 100 µM
- TGI (SNB-75 CNS): > 100 µM
- TGI (UO-31 renal): > 100 µM

Structure (SMILES): CCCC(N)C(=O)c1ccccc1 (centres undefined)
- TGI (HOP-62 NSCLC): > 100 µM
- TGI (HT29 colon): > 100 µM
- TGI (LOX IMVI melanoma): > 100 µM
- TGI (MALME-3M melanoma): > 100 µM
- TGI (SF-295 CNS): > 100 µM
- TGI (SK-OV-3 ovarian): > 100 µM
- TGI (SNB-19 CNS): > 100 µM
- TGI (SNB-75 CNS): > 100 µM
- TGI (UO-31 renal): > 100 µM

Structure (SMILES): O=C(Nc1ccc(Sc2ccc(N=Nc3c(O)c(S(=O)(=O)O)cc4cc(S(=O)(=O)O)ccc34)cc2)cc1)c1ccc(N=Nc2c(O)ccc3c(S(=O)(=O)O)cc(S(=O)(=O)O)cc23)cc1
- TGI (HOP-62 NSCLC): > 100 µM
- TGI (HT29 colon): > 100 µM
- TGI (LOX IMVI melanoma): 34.8 µM
- TGI (MALME-3M melanoma): 72 µM
- TGI (SF-295 CNS): > 100 µM
- TGI (SK-OV-3 ovarian): > 100 µM
- TGI (SNB-19 CNS): > 100 µM
- TGI (SNB-75 CNS): > 100 µM
- TGI (UO-31 renal): > 100 µM

Structure (SMILES): Cc1cc(C)c2c(c1)C1=NCCN1C2(O)c1ccc(Cl)cc1 (centres undefined)
- TGI (HOP-62 NSCLC): 29.3 µM
- TGI (HT29 colon): 31.5 µM
- TGI (LOX IMVI melanoma): 93.4 µM
- TGI (MDA-MB-435): 32.5 µM
- TGI (SF-295 CNS): 31.4 µM
- TGI (SK-OV-3 ovarian): 28.5 µM
- TGI (SNB-19 CNS): 31.7 µM
- TGI (SNB-75 CNS): 25 µM
- TGI (UO-31 renal): 26.9 µM

Structure (SMILES): COC(=O)/C=C(/C(=O)OC)c1cc2ccc3c([nH]c4ccccc43)c(C)c-2c1
- TGI (HOP-62 NSCLC): 37.5 µM
- TGI (HT29 colon): 8.9 µM
- TGI (LOX IMVI melanoma): 14.5 µM
- TGI (MALME-3M melanoma): 19.6 µM
- TGI (MDA-MB-435): 25.1 µM
- TGI (SF-295 CNS): 16.4 µM
- TGI (SK-OV-3 ovarian): 36.9 µM
- TGI (SNB-19 CNS): 23.2 µM
- TGI (SNB-75 CNS): 59.2 µM
- TGI (UO-31 renal): 17.1 µM

Structure (SMILES): COc1cc(C(=O)C2C(=O)c3ccccc3C2C2(O)c3ccccc3CC2C(O)c2cc(OC)c(OC)c(OC)c2)cc(OC)c1OC (centres undefined)
- TGI (HOP-62 NSCLC): > 100 µM
- TGI (HT29 colon): > 100 µM
- TGI (LOX IMVI melanoma): > 100 µM
- TGI (MALME-3M melanoma): > 100 µM
- TGI (MDA-MB-435): > 100 µM
- TGI (SF-295 CNS): > 100 µM
- TGI (SK-OV-3 ovarian): > 100 µM
- TGI (SNB-19 CNS): > 100 µM
- TGI (SNB-75 CNS): 94.3 µM
- TGI (UO-31 renal): > 100 µM

Structure (SMILES): N#CCCN(CCC#N)c1ccc(C(N=Nc2ccccc2)=Nc2ccc(Cl)cc2)cc1
- TGI (HOP-62 NSCLC): > 100 µM
- TGI (HT29 colon): > 100 µM
- TGI (MDA-MB-435): > 100 µM
- TGI (SF-295 CNS): > 100 µM
- TGI (SK-OV-3 ovarian): > 100 µM
- TGI (SNB-19 CNS): > 100 µM
- TGI (SNB-75 CNS): > 100 µM
- TGI (UO-31 renal): > 100 µM

Structure (SMILES): Fc1ccc(-c2nn3c(-c4cc(C(F)(F)F)cc(C(F)(F)F)c4)nnc3s2)cc1
- GI50 (HOP-62 NSCLC): 1.2 µM
- TGI (HOP-62 NSCLC): 3.35 µM
- GI50 (HT29 colon): > 50 µM
- TGI (HT29 colon): > 50 µM
- GI50 (MDA-MB-435): > 50 µM
- TGI (MDA-MB-435): > 50 µM
- GI50 (SF-295 CNS): 1.72 µM
- TGI (SF-295 CNS): > 50 µM
- GI50 (SK-OV-3 ovarian): 1.38 µM
- TGI (SK-OV-3 ovarian): 3.9 µM
- GI50 (SNB-19 CNS): 1.57 µM
- TGI (SNB-19 CNS): > 50 µM
- GI50 (SNB-75 CNS): 0.886 µM
- TGI (SNB-75 CNS): 2.36 µM
- GI50 (UO-31 renal): 1.32 µM
- TGI (UO-31 renal): > 50 µM

Structure (SMILES): N#CC(Nc1cccc(C(F)(F)F)c1)c1ccccc1C(F)(F)F (centres undefined)
- TGI (HOP-62 NSCLC): 10.8 µM
- TGI (HT29 colon): 28 µM
- TGI (LOX IMVI melanoma): 14.5 µM
- TGI (MALME-3M melanoma): 18 µM
- TGI (SF-295 CNS): 22.2 µM
- TGI (SK-OV-3 ovarian): 31.4 µM
- TGI (SNB-19 CNS): 31.9 µM
- TGI (SNB-75 CNS): 32.2 µM
- TGI (UO-31 renal): 31.9 µM

Structure (SMILES): Cc1c(-c2ccccc2)c(C#N)c2nnn(C3CCCCC3)c(=O)n12
- TGI (HOP-62 NSCLC): 46.6 µM
- TGI (HT29 colon): > 100 µM
- TGI (LOX IMVI melanoma): > 100 µM
- TGI (MALME-3M melanoma): > 100 µM
- TGI (MDA-MB-435): > 100 µM
- TGI (SF-295 CNS): > 100 µM
- TGI (SK-OV-3 ovarian): > 100 µM
- TGI (SNB-19 CNS): > 100 µM
- TGI (SNB-75 CNS): 68.8 µM
- TGI (UO-31 renal): 6.85 µM

Structure (SMILES): CC(C)(C)OC(=O)NCCC(=O)NC1(c2cc3ccccc3s2)CCCCC1
- TGI (HOP-62 NSCLC): 35.3 µM
- TGI (HT29 colon): 29.7 µM
- TGI (LOX IMVI melanoma): 36.5 µM
- TGI (MALME-3M melanoma): 37.5 µM
- TGI (MDA-MB-435): 33.1 µM
- TGI (SF-295 CNS): 36.5 µM
- TGI (SK-OV-3 ovarian): 60.1 µM
- TGI (SNB-19 CNS): 37.1 µM
- TGI (SNB-75 CNS): 38.7 µM
- TGI (UO-31 renal): 30.5 µM

Structure (SMILES): CCCCCCCNC(P(=O)(O)O)P(=O)(O)O
- TGI (HOP-62 NSCLC): > 100 µM
- TGI (HT29 colon): > 100 µM
- TGI (LOX IMVI melanoma): > 100 µM
- TGI (MALME-3M melanoma): > 100 µM
- TGI (MDA-MB-435): > 100 µM
- TGI (SF-295 CNS): > 100 µM
- TGI (SK-OV-3 ovarian): > 100 µM
- TGI (SNB-19 CNS): > 100 µM
- TGI (SNB-75 CNS): 43.3 µM
- TGI (UO-31 renal): > 100 µM
